From US20240343813A1, “COMBINATION THERAPY AND RELATED METHODS” (Bicara Therapeutics Inc., priority 2023, published 2024)

Key:
[1] = system: TGFβ-induced hKRAS G12C resistant lung cancer cell line (H1792); test: CellTiter Glo cytotoxicity in TGFβ-induced hKRAS G12C inhibitor resistant cells; assay type: cell-based; settings: long-term TGFβ treated H1792 cells compared to control H1792 cells (wild type); 72 hours
Protocol: Reports have shown that hKRAS G12C inhibitor efficacy is higher in cancer cells with a low epithelial-mesenchymal transition (EMT) signature compared to a high EMT signature. hTGFβ is known to induce EMT through canonical and non-canonical pathways in various cancers.
Briefly, hKRAS G12C inhibitor resistance was induced in H1792 cells by treating the cells with hTGFβ (4 ng/ml) for at least two weeks. […] Cytotoxicity was evaluated using the CellTiter Glo® Luminescent Cell Viability Assay according to manufacturer's instructions (Promega) (as described in Example 6.3).

H358 lung cancer cells = test: Long-term hKRAS G12C inhibitor treatment-induced resistance; assay type: cell-based; settings: H358 treated with increasing concentrations of AMG510 for about one month; vs control (wild type) H358
Protocol: The effect of long duration treatment with a hKRAS G12C inhibitor on acquired hKRAS G12C inhibitor resistance was assessed utilizing an in vitro lung cancer model (H358). Briefly, H358 lung cancer cells were treated with increasing concentrations of the hKRAS G12C inhibitor AMG510 for about one month and cytotoxicity induced by AMG510 subsequently evaluated.

C=CC(=O)N1CCN(c2nc(=O)n(-c3c(C)ccnc3C(C)C)c3nc(-c4c(O)cccc4F)c(F)cc23)[C@@H](C)C1 [AMG510, 6-fluoro-7-(2-fluoro-6-hydroxyphenyl)-(1M)-1-[4-methyl-2-(propan-2-yl)pyridin-3-yl]-4-[(2S)-2-methyl-4-(prop-2enoyl)piperazin-1-yl]pyrido[2,3-d]pyrimidin-2 (1H)-one]
cytotoxicity in response to AMG510 treatment [1]: less cytotoxicity
acquired KRAS G12C inhibitor resistance (percent viability) (H358 lung cancer cells): developed KRAS G12C inhibitor (AMG510) resistance
